Source: ChEMBL document CHEMBL5120754, “Structural modification aimed for improving solubility of lead compounds in early phase drug discovery” (Bioorg Med Chem, 2022)
≈ marks a conversion by molar mass, not a printed value.

What was measured:
HCT-116 = assay: Antiproliferative activity against human HCT-116 cells; format: functional, cell-based
Heat shock protein HSP90 = Heat shock protein HSP90 (Homo sapiens, UniProt P07900+P08238); assay: Inhibition of HSP90 (unknown origin); format: protein assay
physchem [1] = conditions: buffer
NCI-N87 = assay: cells; conditions: Homo sapiens, NCI-N87, 96 h
[2] = molecular target: Transient receptor potential cation channel subfamily V member 1 (Homo sapiens, UniProt Q8NER1); assay: Antagonist activity at TRPV1 (unknown origin)
[3] = molecular target: cGMP-specific 3',5'-cyclic phosphodiesterase (Homo sapiens, UniProt O76074); assay: Inhibition of PDE5 (unknown origin) using FAM-cGMP or FAM-cAMP as substrate incubated for 60 mins and measured by fluorescence polarization assay
[4] = molecular target: T1, Glucose-dependent insulinotropic receptor (Homo sapiens, UniProt Q8TDV5); assay: Agonist activity at GPR119 (unknown origin); format: functional
T1 sequence (Q8TDV5 whole entry): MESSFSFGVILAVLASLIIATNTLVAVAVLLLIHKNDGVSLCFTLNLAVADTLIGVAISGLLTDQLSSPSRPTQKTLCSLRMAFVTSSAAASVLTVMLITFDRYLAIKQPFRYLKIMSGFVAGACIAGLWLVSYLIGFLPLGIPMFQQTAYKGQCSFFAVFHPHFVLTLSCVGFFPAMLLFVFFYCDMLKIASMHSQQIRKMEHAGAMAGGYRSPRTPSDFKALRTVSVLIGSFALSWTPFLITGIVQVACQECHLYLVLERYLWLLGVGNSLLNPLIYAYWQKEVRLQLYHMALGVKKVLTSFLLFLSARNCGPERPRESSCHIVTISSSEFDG

[5] = Lipophilicity, logD of compound; format: physicochemical; conditions: octanol/water
P2Y purinoceptor 12 = P2Y purinoceptor 12 (Homo sapiens, UniProt Q9H244); assay: Antagonist activity at P2Y12 receptor in human platelet rich plasma; format: functional
Cannabinoid receptor 2 = Cannabinoid receptor 2 (Homo sapiens, UniProt P34972); assay: Binding affinity towards human CB2 receptor
[6] = Inhibition of PI3K (unknown origin) activity; set-up: species or system Homo sapiens
[7] = buffer
Hepatitis C virus = assay: Antiviral activity against HCV GT1b-genotype; format: functional, organism-based, Hepacivirus hominis
[8] = Inhibition of rabbit aortic ACAT; set-up: species or system Oryctolagus cuniculus
[9] = molecular target: 3',5'-cyclic-AMP phosphodiesterase 4D (Homo sapiens, UniProt Q08499); assay: Inhibition of PDE4D (unknown origin)
[10] = molecular target: Isocitrate dehydrogenase [NADP] cytoplasmic (Homo sapiens, UniProt O75874, R132H); assay: Inhibition of IDH1 R132H mutant (unknown origin)
[11] = tested on: Trypanosoma brucei brucei; assay: Antitrypanosomal activity against Trypanosoma brucei brucei S427 incubated for 48 hrs by PrestoBlue dye based fluorescence assay; format: functional, organism-based; conditions: S427, 48 h
Plasmodium falciparum [12] = assay: Antimalarial activity against blood stage chloroquine-sensitive Plasmodium falciparum 3D7 infected in human red blood cells measured by [3H]hypoxanthine incorporation assay; format: functional, organism-based, RBC; conditions: 3D7, Erythrocyte
[13] = molecular target: Tyrosine-protein kinase SYK (Homo sapiens, UniProt P43405); assay: Inhibition of SYK (unknown origin)
[14] = molecular target: Metabotropic glutamate receptor 2 (Homo sapiens, UniProt Q14416); assay: Positive allosteric modulation of mGlu2 receptor (unknown origin)
[15] = Permeability of compound in human Caco-2 cells; format: ADME, cell-based; conditions: read-out: permeability
physchem [16] = conditions: octanol/water
[17] = molecular target: T1, Glucose-dependent insulinotropic receptor; assay: Agonist activity at human GPR119; format: functional
[18] = tested on: Mycobacterium tuberculosis; assay: microbe, parasite or virus in culture
[19] = molecular target: Bifunctional epoxide hydrolase 2 (Homo sapiens, UniProt P34913); assay: Inhibition of recombinant human sEH using CMNPC as substrate incubated for 10 mins and measured by fluorescence assay
[20] = molecular target: Epidermal growth factor receptor (Homo sapiens, UniProt P00533, L858R/T790M)
Plasmodium falciparum [21] = assay: Antimalarial activity against blood stage multidrug-resistant Plasmodium falciparum K1; format: functional, organism-based
Plasmodium falciparum [22] = assay: Antimalarial activity against blood stage drug-sensitive Plasmodium falciparum NF54; format: functional, organism-based
A549 [23] = assay: Antiproliferative activity against human A549 cells; format: functional, cell-based; conditions: read-out: TD50 (the source's name)
A549 [24] = assay: Antiproliferative activity against human A549 cells by MTT assay; format: functional, cell-based
[25] = molecular target: Peroxisome proliferator-activated receptor gamma (Homo sapiens, UniProt P37231); assay: Agonist activity at human PPARgamma
Glutamate NMDA receptor = assay: Antagonist activity at NMDA receptor in rat cortical wedges assessed as inhibition of NMDA-induced depolarization
[26] = molecular target: Corticotropin-releasing factor receptor 1 (Homo sapiens, UniProt P34998); assay: Antagonist activity at human CRF1 receptor; format: functional
[27] = Antagonist activity at GlyN receptor (unknown origin); set-up: species or system Homo sapiens
[28] = molecular target: Glutamate receptor ionotropic AMPA (Homo sapiens, UniProt P42261+P42262+P42263+P48058); assay: Antagonist activity at AMPA receptor (unknown origin); format: protein-complex assay
Staphylococcus aureus = assay: Antibacterial activity against methicillin-resistant Staphylococcus aureus in in-vivo systemic infection model; format: functional
[29] = molecular target: Histone-lysine N-methyltransferase EZH2 (Homo sapiens, UniProt Q15910, Y641N); assay: Inhibition of EZH2 Y641N mutant (unknown origin)
Histone-lysine N-methyltransferase EZH2, sequence (Q15910 whole entry Y641N): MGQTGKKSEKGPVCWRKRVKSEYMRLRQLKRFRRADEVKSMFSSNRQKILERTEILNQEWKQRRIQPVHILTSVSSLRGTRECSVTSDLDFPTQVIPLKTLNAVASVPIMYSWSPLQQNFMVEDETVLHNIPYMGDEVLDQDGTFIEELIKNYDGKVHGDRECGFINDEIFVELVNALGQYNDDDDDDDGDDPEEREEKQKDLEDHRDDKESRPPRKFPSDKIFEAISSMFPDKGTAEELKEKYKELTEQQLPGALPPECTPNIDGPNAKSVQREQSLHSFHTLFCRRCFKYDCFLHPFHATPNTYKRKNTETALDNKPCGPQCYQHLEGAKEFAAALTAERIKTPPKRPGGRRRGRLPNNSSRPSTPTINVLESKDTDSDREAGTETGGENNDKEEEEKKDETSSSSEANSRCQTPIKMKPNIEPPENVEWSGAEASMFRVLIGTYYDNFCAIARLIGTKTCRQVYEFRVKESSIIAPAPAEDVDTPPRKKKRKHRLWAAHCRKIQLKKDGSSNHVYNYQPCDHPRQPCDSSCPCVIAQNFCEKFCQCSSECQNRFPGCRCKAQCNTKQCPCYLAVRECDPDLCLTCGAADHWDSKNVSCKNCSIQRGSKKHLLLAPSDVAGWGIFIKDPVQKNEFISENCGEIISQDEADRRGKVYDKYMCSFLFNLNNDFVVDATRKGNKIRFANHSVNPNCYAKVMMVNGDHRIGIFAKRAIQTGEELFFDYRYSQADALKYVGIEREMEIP

Isocitrate dehydrogenase [NADP] cytoplasmic, sequence (O75874 2-414 R132H limits assumed): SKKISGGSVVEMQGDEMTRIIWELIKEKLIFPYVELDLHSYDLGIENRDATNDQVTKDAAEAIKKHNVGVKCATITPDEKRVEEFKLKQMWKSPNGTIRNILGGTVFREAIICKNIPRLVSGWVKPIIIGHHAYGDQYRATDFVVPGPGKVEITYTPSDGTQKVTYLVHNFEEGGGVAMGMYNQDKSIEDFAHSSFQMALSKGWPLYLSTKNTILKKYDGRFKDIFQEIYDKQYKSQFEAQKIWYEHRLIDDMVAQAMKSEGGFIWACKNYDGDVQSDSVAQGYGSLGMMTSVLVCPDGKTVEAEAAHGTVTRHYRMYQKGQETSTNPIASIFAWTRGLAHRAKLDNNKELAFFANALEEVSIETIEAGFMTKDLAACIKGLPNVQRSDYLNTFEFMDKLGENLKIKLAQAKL
3',5'-cyclic-AMP phosphodiesterase 4D, sequence (Q08499 whole entry): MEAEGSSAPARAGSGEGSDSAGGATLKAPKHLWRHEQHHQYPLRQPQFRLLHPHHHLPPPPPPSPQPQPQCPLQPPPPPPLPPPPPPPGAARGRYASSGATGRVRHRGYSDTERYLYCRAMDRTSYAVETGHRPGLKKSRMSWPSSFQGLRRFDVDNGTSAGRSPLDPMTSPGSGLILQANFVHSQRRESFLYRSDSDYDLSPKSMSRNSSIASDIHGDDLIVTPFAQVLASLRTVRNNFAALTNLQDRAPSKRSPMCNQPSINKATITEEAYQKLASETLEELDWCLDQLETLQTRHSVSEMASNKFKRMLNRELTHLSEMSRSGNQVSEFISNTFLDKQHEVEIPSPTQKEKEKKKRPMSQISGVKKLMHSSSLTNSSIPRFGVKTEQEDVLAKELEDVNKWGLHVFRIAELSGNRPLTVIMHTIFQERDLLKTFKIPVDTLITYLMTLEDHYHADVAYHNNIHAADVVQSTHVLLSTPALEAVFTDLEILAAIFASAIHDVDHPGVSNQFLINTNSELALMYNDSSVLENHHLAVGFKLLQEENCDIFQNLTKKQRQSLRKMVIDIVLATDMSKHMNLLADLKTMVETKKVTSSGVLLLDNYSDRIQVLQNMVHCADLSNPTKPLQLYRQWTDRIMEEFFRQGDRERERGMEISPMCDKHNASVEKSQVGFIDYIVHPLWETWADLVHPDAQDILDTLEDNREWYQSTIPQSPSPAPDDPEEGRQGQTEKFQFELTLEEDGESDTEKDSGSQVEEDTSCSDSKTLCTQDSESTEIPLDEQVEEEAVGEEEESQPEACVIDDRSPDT
P2Y purinoceptor 12, sequence (Q9H244 whole entry): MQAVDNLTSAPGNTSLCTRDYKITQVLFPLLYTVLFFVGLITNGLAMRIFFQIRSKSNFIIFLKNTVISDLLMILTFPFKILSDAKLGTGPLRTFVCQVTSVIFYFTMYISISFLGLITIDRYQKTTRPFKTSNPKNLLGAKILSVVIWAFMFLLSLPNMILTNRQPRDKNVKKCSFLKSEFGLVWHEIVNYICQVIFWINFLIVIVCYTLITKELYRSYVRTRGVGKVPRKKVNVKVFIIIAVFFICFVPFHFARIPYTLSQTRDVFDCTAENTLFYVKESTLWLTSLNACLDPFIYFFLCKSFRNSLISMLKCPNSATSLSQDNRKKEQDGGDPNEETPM
Epidermal growth factor receptor, sequence (P00533 25-1210 T790M/L858R limits assumed): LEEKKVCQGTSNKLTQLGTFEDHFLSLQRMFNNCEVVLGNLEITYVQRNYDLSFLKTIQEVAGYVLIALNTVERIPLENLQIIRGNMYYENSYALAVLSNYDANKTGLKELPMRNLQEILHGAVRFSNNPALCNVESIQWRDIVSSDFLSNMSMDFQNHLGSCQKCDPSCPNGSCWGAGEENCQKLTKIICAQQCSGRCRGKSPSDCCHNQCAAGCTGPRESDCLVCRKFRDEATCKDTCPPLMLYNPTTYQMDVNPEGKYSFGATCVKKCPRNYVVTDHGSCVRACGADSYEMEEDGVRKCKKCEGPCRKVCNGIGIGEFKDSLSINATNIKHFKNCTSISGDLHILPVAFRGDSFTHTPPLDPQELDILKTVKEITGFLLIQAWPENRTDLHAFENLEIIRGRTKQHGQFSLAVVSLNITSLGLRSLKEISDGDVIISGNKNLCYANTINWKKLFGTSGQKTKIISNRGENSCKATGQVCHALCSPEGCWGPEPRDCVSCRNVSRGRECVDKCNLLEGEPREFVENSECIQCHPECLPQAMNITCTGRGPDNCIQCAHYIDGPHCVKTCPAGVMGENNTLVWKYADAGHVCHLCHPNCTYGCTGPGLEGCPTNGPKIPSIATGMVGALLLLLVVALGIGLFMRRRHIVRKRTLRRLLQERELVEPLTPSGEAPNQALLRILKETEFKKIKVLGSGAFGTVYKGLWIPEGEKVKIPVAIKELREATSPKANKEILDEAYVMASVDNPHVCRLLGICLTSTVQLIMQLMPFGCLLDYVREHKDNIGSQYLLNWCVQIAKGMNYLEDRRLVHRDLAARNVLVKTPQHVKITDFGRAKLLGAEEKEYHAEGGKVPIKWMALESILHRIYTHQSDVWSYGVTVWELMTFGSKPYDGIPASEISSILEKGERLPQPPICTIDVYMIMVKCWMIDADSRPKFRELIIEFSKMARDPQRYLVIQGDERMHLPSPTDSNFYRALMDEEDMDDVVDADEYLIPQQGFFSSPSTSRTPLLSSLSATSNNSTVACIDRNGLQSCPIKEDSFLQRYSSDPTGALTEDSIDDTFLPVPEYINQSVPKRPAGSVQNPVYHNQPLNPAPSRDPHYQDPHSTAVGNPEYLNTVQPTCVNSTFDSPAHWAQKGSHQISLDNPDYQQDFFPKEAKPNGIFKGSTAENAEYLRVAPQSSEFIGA
Cannabinoid receptor 2, sequence (P34972 whole entry): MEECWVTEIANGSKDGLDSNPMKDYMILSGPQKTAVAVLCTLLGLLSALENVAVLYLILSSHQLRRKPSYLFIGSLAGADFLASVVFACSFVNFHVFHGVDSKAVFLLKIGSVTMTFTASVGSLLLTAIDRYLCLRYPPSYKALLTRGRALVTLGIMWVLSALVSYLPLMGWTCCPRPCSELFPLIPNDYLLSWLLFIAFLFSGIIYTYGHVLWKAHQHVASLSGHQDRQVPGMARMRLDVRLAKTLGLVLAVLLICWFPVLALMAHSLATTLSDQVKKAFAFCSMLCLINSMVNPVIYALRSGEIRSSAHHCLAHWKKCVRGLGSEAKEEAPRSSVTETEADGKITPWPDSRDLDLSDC
Bifunctional epoxide hydrolase 2, sequence (P34913 whole entry): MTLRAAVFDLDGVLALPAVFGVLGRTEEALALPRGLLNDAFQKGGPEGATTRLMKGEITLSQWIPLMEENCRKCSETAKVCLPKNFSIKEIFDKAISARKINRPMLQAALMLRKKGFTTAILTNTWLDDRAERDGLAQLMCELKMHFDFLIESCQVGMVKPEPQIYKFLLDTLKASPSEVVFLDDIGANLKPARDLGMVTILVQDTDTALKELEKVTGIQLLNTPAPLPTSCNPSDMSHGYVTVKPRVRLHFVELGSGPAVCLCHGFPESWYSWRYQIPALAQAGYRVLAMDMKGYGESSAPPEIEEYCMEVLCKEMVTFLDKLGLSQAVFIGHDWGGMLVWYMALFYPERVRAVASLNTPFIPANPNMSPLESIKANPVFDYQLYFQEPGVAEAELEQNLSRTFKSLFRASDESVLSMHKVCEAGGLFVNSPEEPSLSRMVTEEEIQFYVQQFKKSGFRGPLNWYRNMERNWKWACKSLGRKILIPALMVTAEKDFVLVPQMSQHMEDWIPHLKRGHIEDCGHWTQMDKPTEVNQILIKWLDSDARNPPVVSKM
Corticotropin-releasing factor receptor 1, sequence (P34998 whole entry): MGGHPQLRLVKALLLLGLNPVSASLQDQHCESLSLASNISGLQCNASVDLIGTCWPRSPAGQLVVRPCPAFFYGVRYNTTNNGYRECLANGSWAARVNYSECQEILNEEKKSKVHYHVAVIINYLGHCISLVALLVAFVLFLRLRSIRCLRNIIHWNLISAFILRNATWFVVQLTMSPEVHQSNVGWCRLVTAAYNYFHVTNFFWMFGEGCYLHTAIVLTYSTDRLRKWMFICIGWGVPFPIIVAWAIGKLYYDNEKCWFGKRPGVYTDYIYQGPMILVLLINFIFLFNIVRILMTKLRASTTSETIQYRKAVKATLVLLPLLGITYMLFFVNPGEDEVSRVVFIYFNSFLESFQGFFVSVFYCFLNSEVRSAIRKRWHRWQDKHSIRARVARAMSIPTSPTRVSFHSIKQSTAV

## CCc1cc(C(=O)N2Cc3ccccc3C2)c(O)cc1O
HCT-116
  IC50: 31 nM
Heat shock protein HSP90
  Kd: 0.54 nM

## CSc1nc(N)nc(-c2c(Cl)cc3c4c(cccc24)COC3)n1
Physchem [1]
  solubility thermodynamic: 29 µM
NCI-N87
  IC50: 570 nM

## CC(=O)Nc1nc2c(Oc3cc(C4=CCC(C(F)(F)F)CC4)ncn3)cccc2s1 (centres undefined)
[2]
  IC50: 27 nM
Physchem [1]
  solubility thermodynamic: 13 µg/mL

## COc1ccc(CNc2c(CO)cnc3c(C4CC4)cc(C#N)cc23)cc1Cl
Physchem [1]
  solubility thermodynamic: 3.9 µM
[3]
  IC50: 0.37 nM

## CC(C)c1nc(N2CCN(c3ncc(OCc4ccncc4C#N)cn3)CC2)no1
[4]
  EC50: 6 nM
[5]
  logD: 3.3
Physchem [1]
  solubility thermodynamic: 6 µM

## CCOC(=O)c1cc(C#N)c(N2CCC(C(=O)NS(=O)(=O)Cc3ccccc3)CC2)nc1C
Physchem [1]
  solubility thermodynamic: 2.99 µM
P2Y purinoceptor 12
  IC50: 3600 nM

## CCCCCn1c(=O)c(C(=O)NC23CC4CC(CC(C4)C2)C3)c(O)c2ccc(F)cc21
Physchem [1]
  solubility thermodynamic: 1.5 µg/mL
Cannabinoid receptor 2
  Ki: 0.8 nM

## CCN1CCN(c2cc(F)c(NC(=O)N3CCc4c(-c5cnc(N)nc5)nc(N5CCOCC5)nc43)c(F)c2)CC1
[6]
  IC50: 0.022 µg/mL (≈ 0.0388 µM)
Physchem [1]
  solubility thermodynamic: 20 µg/mL

## COc1c(/C=C/c2ccc(NS(C)(=O)=O)cc2)cc(N2CCC(=O)NC2=O)cc1C(C)(C)C
[7]
  Therm_solubility: 20700 µg/mL
Hepatitis C virus
  EC50: 0.3 nM

## CC(C)c1cccc(C(C)C)c1NC(=O)CCCCCCCCSc1nc2ccccc2o1
[7]
  Therm_solubility: 0.03 µg/mL
[8]
  IC50: 4 nM

## CC(C)c1cccc(C(C)C)c1NC(=O)CN1CCN(CCSc2nc3ccccc3o2)CC1
Physchem [1]
  solubility thermodynamic: 19000 µg/mL
[8]
  IC50: 84 nM

## O=C(O)C1CCC(c2cc3cccnc3c(-c3cccc(F)c3)n2)CC1 (centres undefined)
[9]
  IC50: 32 nM
Physchem [1]
  solubility thermodynamic: 920 µg/mL

## COc1nc(N[C@@H](C)c2cc3cc(Cl)ccc3[nH]c2=O)ncc1C#N
[10]
  IC50: 81.4 nM
Physchem [1]
  solubility thermodynamic: 10.5 µM

## CN1CCCN(c2ncc(-c3ccc4c(Nc5cnccn5)ccnc4c3)cn2)CC1
[11]
  EC50: 13 nM

## Cc1ccc(-c2cc(C(=O)Nc3cccnc3)c3cc(F)ccc3n2)cc1
Plasmodium falciparum [12]
  EC50: 120 nM
Physchem [1]
  solubility thermodynamic: 39 µM

## CCc1cc(C(=O)N2Cc3ccc(CN4CCN(C)CC4)cc3C2)c(O)cc1O
HCT-116
  IC50: 48 nM
Heat shock protein HSP90
  Kd: 0.71 nM
Physchem [1]
  solubility thermodynamic: 30000 µg/mL

## CC(C)N1C[C@H]2C[C@@H]1CN2c1ccc(Nc2nc(-c3ccc4cn[nH]c4c3)cn3ccnc23)cc1
[13]
  IC50: 80 nM
Physchem [1]
  solubility thermodynamic: 0.216 µg/mL

## Fc1ccc(C2CCC(c3ccn4c(CC5CC5)nnc4c3C(F)(F)F)CC2)c(F)c1 (centres undefined)
[14]
  EC50: 78 nM
[15]
  Papp: 22 ×10⁻⁶ cm/s
Physchem [1]
  solubility thermodynamic: 50 µg/mL
Physchem [16]
  logP: 4.2

## CCc1cnc(N2CCC(n3ncc4ccc(-c5ccc(S(C)(=O)=O)cc5F)nc43)CC2)cn1
[17]
  EC50: 4 nM
Physchem [1]
  solubility thermodynamic: 0.71 µM

## O=C(NC1=CC=CC1)NC12CC3CC(CC(C3)C1)C2
[18]
  MIC: 0.01 µg/mL (≈ 0.0387 µM)
Physchem [1]
  solubility thermodynamic: 0.1 µg/mL
[19]
  IC50: 0.4 nM

## C=CC(=O)N1CCC(N2C(=O)N(c3ccccc3)Cc3cnc(Nc4ccc(N5CCN(C)CC5)c(C)c4)nc32)C1 (centres undefined)
[20]
  IC50: 9.2 nM

## CC(C)OC(=O)N1CCC(n2ncc3ccc(-c4cc(F)c(S(C)(=O)=O)cc4F)nc32)CC1
[17]
  EC50: 65 nM
Physchem [1]
  solubility thermodynamic: 15.9 µM

## Nc1ncc(-c2ccc(C(=O)N3CC(O)C3)cc2)nc1-c1ccc(C(F)(F)F)nc1
Plasmodium falciparum [21]
  IC50: 7 nM
Plasmodium falciparum [22]
  IC50: 9.2 nM
Physchem [1]
  solubility thermodynamic: 55 µM

## Cc1nc(C)c(CC2CC/C(=C\c3c(-c4ccccc4)n(C)c4ncccc34)C2=O)nc1C (centres undefined)
Physchem [1]
  solubility thermodynamic: 94000 µg/mL
A549 [23]
  CC50: 22000 nM

## CC[C@]1(OC(=O)CNC(=O)CCC(=O)O)C(=O)OCc2c1ccn(Cc1cnc3ccc4c(c3c1)C(=O)NC(C(C)C)O4)c2=O (some centres undefined)
Physchem [1]
  solubility thermodynamic: 3400 µg/mL
A549 [24]
  IC50: 6470 nM

## CCCOc1ccc(CC(Cc2ccccc2)C(=O)O)cc1CNC(=O)c1ccc(-c2ncccn2)cc1 (centres undefined)
Physchem [1]
  solubility thermodynamic: 301 µg/mL
[25]
  EC50: 34.6 nM

## CCC(c1c(Cl)c(Cl)cc2nc(O)c(O)nc12)n1cncn1 (centres undefined)
Glutamate NMDA receptor
  IC50: 4.4 nM
Physchem [1]
  solubility thermodynamic: 10 µg/mL

## CCCN(CC1CC1)c1cc(C)nc2c(-c3ccc(Cl)cc3Cl)c(C)nn12
[26]
  IC50: 76 nM

## CCOC(=O)CN(C)Cc1c(CC)c([N+](=O)[O-])cc2nc(O)c(O)nc12
[27]
  IC50: 470 nM
[28]
  IC50: 140 nM
Physchem [1]
  solubility thermodynamic: 150 µg/mL

## CC(=O)NC[C@H]1CN(c2ccc(N3CCOCC3)c(F)c2)C(=O)O1 [LINEZOLID]
Staphylococcus aureus
  ED50: 5 mg/kg

## COc1cc(C)[nH]c(=O)c1CN1CCc2c(Cl)cc([C@H](OC)C3COC3)c(Cl)c2C1=O [MEVROMETOSTAT]
[29]
  Ki: < 0.1 nM
